Experimental data published in publication PMC5518293, “An Iterative Module in the Azalomycin F Polyketide Synthase Contains a Switchable Enoylreductase Domain” (Angewandte Chemie (International Ed. in English), 2017).

Biological target: T1, AzlA (Streptomyces sp. 211726, UniProt A0A1W6GWW1)
T1 construct: recombinant multienzyme, loading module (ACPL) plus extension module 1 (KS-AT-DH-ER-KR-ACP); mutant stated expressed in E. coli BAP1, holo-ACP1
Test: one-pot reconstitution, LC-ESI-HRMS of acyl-ACP1 and of hydrolysed products
Type: biochemical
Details: extender unit; with Azl4, Azl5, 4-guanidinobutyric acid and added stand-alone holo-ACP1

SMILES: CC(C)(COP(=O)(O)OP(=O)(O)OC[C@H]1O[C@@H](n2cnc3c(N)ncnc32)[C@H](O)[C@@H]1OP(=O)(O)O)[C@@H](O)C(=O)NCCC(=O)NCCSC(=O)CC(=O)O [malonyl‐CoA]
- one-pot reconstitution, LC-ESI-HRMS of acyl-ACP1 and of hydrolysed products: recruits malonyl‐CoA as extender unit
